Test results reported in the NIST ThermoML archive (doi:10.1021/je300775u).

Assay: xn = mol fraction of the nth substance listed
Details: 101 kPa, Liquid; for speed of sound: Pulse-echo method; for mass density: Vibrating tube method

BrCBr [dibromomethane] + CCCCCCC
Details | mass density, 293.15 K [kg/m3] | mass density, 298.15 K [kg/m3] | mass density, 303.15 K [kg/m3] | mass density, 308.15 K [kg/m3] | mass density, 313.15 K [kg/m3] | speed of sound, 293.15 K [m/s] | speed of sound, 298.15 K [m/s] | speed of sound, 303.15 K [m/s] | speed of sound, 308.15 K [m/s] | speed of sound, 313.15 K [m/s]
x1 = 0.0504 | 727.59 | 723.09 | 718.56 | 714 | 709.41 | 1128.1 | 1107.3 | 1086.4 | 1065.7 | 1045.1
x1 = 0.1039 | 776.8 | 772.01 | 767.19 | 762.36 | 757.48 | 1104.9 | 1084.7 | 1064.4 | 1044.3 | 1024.3
x1 = 0.1552 | 826.84 | 821.77 | 816.67 | 811.54 | 806.36 | 1084 | 1064.4 | 1044.8 | 1025.2 | 1005.6
x1 = 0.2037 | 877.02 | 871.66 | 866.26 | 860.84 | 855.37 | 1065.7 | 1046.5 | 1027.3 | 1008.2 | 989
x1 = 0.2532 | 931.38 | 925.72 | 920.03 | 914.3 | 908.53 | 1048.3 | 1029.7 | 1010.9 | 992.3 | 973.7
x1 = 0.3019 | 988.09 | 982.12 | 976.09 | 970.04 | 963.95 | 1032.4 | 1014.2 | 995.8 | 977.6 | 959.6
x1 = 0.354 | 1052.94 | 1046.61 | 1040.23 | 1033.82 | 1027.38 | 1016.7 | 999.1 | 981.2 | 963.5 | 946
x1 = 0.4022 | 1117.05 | 1110.37 | 1103.65 | 1096.88 | 1090.09 | 1003.5 | 986.1 | 968.8 | 951.5 | 934.5
x1 = 0.4552 | 1192.54 | 1185.46 | 1178.34 | 1171.15 | 1163.95 | 990.1 | 973.2 | 956.4 | 939.6 | 923
x1 = 0.4962 | 1254.87 | 1247.47 | 1240.03 | 1232.54 | 1225 | 980.6 | 964.2 | 947.8 | 931.2 | 914.8
x1 = 0.5532 | 1347.9 | 1339.98 | 1332.06 | 1324.08 | 1316.09 | 969.3 | 953.3 | 937.4 | 921.4 | 905.5
x1 = 0.6119 | 1452.49 | 1444.09 | 1435.65 | 1427.16 | 1418.62 | 959.2 | 943.8 | 928.3 | 912.9 | 897.5
x1 = 0.6543 | 1534.18 | 1525.37 | 1516.52 | 1507.63 | 1498.69 | 953.4 | 938.2 | 923.1 | 908 | 893
x1 = 0.7032 | 1635.75 | 1626.46 | 1617.14 | 1607.76 | 1598.32 | 948 | 933.3 | 918.6 | 903.9 | 889.2
x1 = 0.7514 | 1744.18 | 1734.39 | 1724.55 | 1714.66 | 1704.72 | 944.6 | 930.2 | 915.8 | 901.5 | 887.2
x1 = 0.8024 | 1869.64 | 1859.25 | 1848.85 | 1838.4 | 1827.87 | 942.9 | 928.9 | 915 | 901.1 | 887
x1 = 0.8518 | 2003.09 | 1992.14 | 1981.12 | 1970.07 | 1958.96 | 943.8 | 930.2 | 916.5 | 902.9 | 889.3
x1 = 0.9004 | 2147.05 | 2135.43 | 2123.78 | 2112.21 | 2100.38 | 947.2 | 933.8 | 920.3 | 907.1 | 893.8
x1 = 0.9502 | 2310.37 | 2298.08 | 2285.74 | 2273.36 | 2260.95 | 953.1 | 940.1 | 927.1 | 914.1 | 901.1
x1 = 1 | 2491.67 | 2478.61 | 2465.53 | 2452.42 | 2439.26 | 961.8 | 949.2 | 936.6 | 924 | 911.4
